Laboratory results: ChEMBL document CHEMBL5236661, “A new selective inhibitor for IMP-1 metallo-β-lactamase, 3Z,5E-octa-3,5-diene-1,3,4-tricarboxylic acid-3,4-anhydride” (Bioorg Med Chem, 2023)
In brackets after ≈: the same amount, converted by molar mass. Activity calls are given as the source filed them. The calls are words filed in the database; no cut-off is given here.

biological target: not listed separately; experiment: Inhibition of bacterial Metallo-beta-lactamase IMP-1 using nitrocefin as substrate pre-incubated for 15 mins followed by substrate addition by microplate reader; design: species or system Bacteria; conditions: not given

| IC50 [µg/mL] | Compound |
| --- | --- |
| > 10 | CC/C=C/C1=C(CCCOS(C)(=O)=O)C(=O)OC1=O |
| 9.49 (≈ 27.2 µM) | CC/C=C/C1=C(c2ccc(OCOC)c(OCOC)c2)C(=O)OC1=O |
| 67.3 (≈ 300 µM) | CC/C=C/C1=C(CCC(=O)O)C(=O)OC1=O |
| > 10 | CC/C=C/C1=C(CCCOCc2ccccc2)C(=O)OC1=O |

tested on: Escherichia coli; experiment: Antibacterial activity against Escherichia coli KB366 expressing IMP-1 assessed as inhibition of bacterial growth at 100 ug in presence of meropenem incubated overnight by paper disk method; format: functional; conditions: read-out: IZ

| Compound | zone of inhibition at 100 µg/disc [mm] |
| --- | --- |
| CC/C=C/C1=C(c2ccc(OCOC)c(OCOC)c2)C(=O)OC1=O | 27 |

tested on: Escherichia coli; experiment: Antibacterial activity against Escherichia coli KB366 expressing IMP-1 assessed as inhibition of bacterial growth at 30 ug in presence of meropenem incubated overnight by paper disk method; format: functional; conditions: read-out: IZ

| Compound | zone of inhibition at 30 µg/disc [mm] |
| --- | --- |
| CC/C=C/C1=C(c2ccc(OCOC)c(OCOC)c2)C(=O)OC1=O | 23 |

tested on: Escherichia coli; experiment: Antibacterial activity against Escherichia coli KB366 expressing IMP-1 assessed as inhibition of bacterial growth at 10 ug in presence of meropenem incubated overnight by paper disk method; format: functional; conditions: read-out: IZ

| Compound | zone of inhibition at 10 µg/disc [mm] |
| --- | --- |
| CC/C=C/C1=C(c2ccc(OCOC)c(OCOC)c2)C(=O)OC1=O | 20 |

tested on: Escherichia coli; experiment: Antibacterial activity against Escherichia coli KB366 expressing IMP-1 assessed as inhibition of bacterial growth at 3 ug in presence of meropenem incubated overnight by paper disk method; format: functional; conditions: read-out: IZ

| Compound | zone of inhibition at 3 µg/disc [mm] |
| --- | --- |
| CC/C=C/C1=C(c2ccc(OCOC)c(OCOC)c2)C(=O)OC1=O | 16 |

tested on: Escherichia coli; experiment: Antibacterial activity against Escherichia coli KB366 expressing IMP-1 assessed as inhibition of bacterial growth at 1 ug in presence of meropenem incubated overnight by paper disk method; format: functional; conditions: read-out: IZ

| Compound | zone of inhibition at 1 µg/disc [mm] |
| --- | --- |
| CC/C=C/C1=C(c2ccc(OCOC)c(OCOC)c2)C(=O)OC1=O | 14 |

tested on: Escherichia coli; experiment: Antibacterial activity against Escherichia coli KB366 expressing IMP-1 assessed as inhibition of bacterial growth at 0.3 ug in presence of meropenem incubated overnight by paper disk method; format: functional; conditions: read-out: IZ

| Compound | zone of inhibition at 0.3 µg/disc [mm] |
| --- | --- |
| CC/C=C/C1=C(c2ccc(OCOC)c(OCOC)c2)C(=O)OC1=O | 11 |

tested on: Escherichia coli; experiment: Antibacterial activity against Escherichia coli KB366 expressing IMP-1 assessed as inhibition of bacterial growth at 100 ug in absence of meropenem incubated overnight by paper disk method; format: functional, organism-based; conditions: dose 100.0 µg

| Compound | inhibition zone (IZ) |
| --- | --- |
| CC/C=C/C1=C(c2ccc(OCOC)c(OCOC)c2)C(=O)OC1=O | inactive |

tested on: Escherichia coli; experiment: Antibacterial activity against Escherichia coli KB366 expressing IMP-1 assessed as inhibition of bacterial growth at 30 ug in absence of meropenem incubated overnight by paper disk method; format: functional, organism-based; conditions: dose 30.0 µg

| Compound | inhibition zone (IZ) |
| --- | --- |
| CC/C=C/C1=C(c2ccc(OCOC)c(OCOC)c2)C(=O)OC1=O | inactive |

tested on: Escherichia coli; experiment: Antibacterial activity against Escherichia coli KB366 expressing IMP-1 assessed as inhibition of bacterial growth at 10 ug in absence of meropenem incubated overnight by paper disk method; format: functional, organism-based; conditions: dose 10.0 µg

| Compound | inhibition zone (IZ) |
| --- | --- |
| CC/C=C/C1=C(c2ccc(OCOC)c(OCOC)c2)C(=O)OC1=O | inactive |

tested on: Escherichia coli; experiment: Antibacterial activity against Escherichia coli KB366 expressing IMP-1 assessed as inhibition of bacterial growth at 3 ug in absence of meropenem incubated overnight by paper disk method; format: functional, organism-based; conditions: dose 3.0 µg

| Compound | inhibition zone (IZ) |
| --- | --- |
| CC/C=C/C1=C(c2ccc(OCOC)c(OCOC)c2)C(=O)OC1=O | inactive |

tested on: Escherichia coli; experiment: Antibacterial activity against Escherichia coli KB366 expressing IMP-1 assessed as inhibition of bacterial growth at 1 ug in absence of meropenem incubated overnight by paper disk method; format: functional, organism-based; conditions: dose 1.0 µg

| Compound | inhibition zone (IZ) |
| --- | --- |
| CC/C=C/C1=C(c2ccc(OCOC)c(OCOC)c2)C(=O)OC1=O | inactive |

tested on: Escherichia coli; experiment: Antibacterial activity against Escherichia coli KB366 expressing IMP-1 assessed as inhibition of bacterial growth at 0.3 ug in absence of meropenem incubated overnight by paper disk method; format: functional, organism-based; conditions: dose 0.3 µg

| Compound | inhibition zone (IZ) |
| --- | --- |
| CC/C=C/C1=C(c2ccc(OCOC)c(OCOC)c2)C(=O)OC1=O | inactive |

tested on: Pseudomonas aeruginosa; experiment: Antibacterial activity against Pseudomonas aeruginosa KB367 expressing IMP-1 assessed as inhibition of bacterial growth at 100 ug in presence of meropenem incubated overnight by paper disk method; format: functional; conditions: dose 100.0 µg

| Compound | inhibition zone (IZ) |
| --- | --- |
| CC/C=C/C1=C(c2ccc(OCOC)c(OCOC)c2)C(=O)OC1=O | inactive |

tested on: Pseudomonas aeruginosa; experiment: Antibacterial activity against Pseudomonas aeruginosa KB367 expressing IMP-1 assessed as inhibition of bacterial growth at 30 ug in presence of meropenem incubated overnight by paper disk method; format: functional; conditions: dose 30.0 µg

| Compound | inhibition zone (IZ) |
| --- | --- |
| CC/C=C/C1=C(c2ccc(OCOC)c(OCOC)c2)C(=O)OC1=O | inactive |

tested on: Pseudomonas aeruginosa; experiment: Antibacterial activity against Pseudomonas aeruginosa KB367 expressing IMP-1 assessed as inhibition of bacterial growth at 10 ug in presence of meropenem incubated overnight by paper disk method; format: functional; conditions: dose 10.0 µg

| Compound | inhibition zone (IZ) |
| --- | --- |
| CC/C=C/C1=C(c2ccc(OCOC)c(OCOC)c2)C(=O)OC1=O | inactive |

tested on: Pseudomonas aeruginosa; experiment: Antibacterial activity against Pseudomonas aeruginosa KB367 expressing IMP-1 assessed as inhibition of bacterial growth at 3 ug in presence of meropenem incubated overnight by paper disk method; format: functional; conditions: dose 3.0 µg

| Compound | inhibition zone (IZ) |
| --- | --- |
| CC/C=C/C1=C(c2ccc(OCOC)c(OCOC)c2)C(=O)OC1=O | inactive |

tested on: Pseudomonas aeruginosa; experiment: Antibacterial activity against Pseudomonas aeruginosa KB367 expressing IMP-1 assessed as inhibition of bacterial growth at 1 ug in presence of meropenem incubated overnight by paper disk method; format: functional; conditions: dose 1.0 µg

| Compound | inhibition zone (IZ) |
| --- | --- |
| CC/C=C/C1=C(c2ccc(OCOC)c(OCOC)c2)C(=O)OC1=O | inactive |

tested on: Pseudomonas aeruginosa; experiment: Antibacterial activity against Pseudomonas aeruginosa KB367 expressing IMP-1 assessed as inhibition of bacterial growth at 0.3 ug in presence of meropenem incubated overnight by paper disk method; format: functional, organism-based; conditions: dose 0.3 µg

| Compound | inhibition zone (IZ) |
| --- | --- |
| CC/C=C/C1=C(c2ccc(OCOC)c(OCOC)c2)C(=O)OC1=O | inactive |

tested on: Pseudomonas aeruginosa; experiment: Antibacterial activity against Pseudomonas aeruginosa KB367 expressing IMP-1 assessed as inhibition of bacterial growth at 0.1 ug in presence of meropenem incubated overnight by paper disk method; format: functional, organism-based; conditions: dose 0.1 µg

| Compound | inhibition zone (IZ) |
| --- | --- |
| CC/C=C/C1=C(c2ccc(OCOC)c(OCOC)c2)C(=O)OC1=O | inactive |

tested on: Pseudomonas aeruginosa; experiment: Antibacterial activity against Pseudomonas aeruginosa KB367 expressing IMP-1 assessed as inhibition of bacterial growth at 100 ug in absence of meropenem incubated overnight by paper disk method; format: functional, organism-based; conditions: dose 100.0 µg

| Compound | inhibition zone (IZ) |
| --- | --- |
| CC/C=C/C1=C(c2ccc(OCOC)c(OCOC)c2)C(=O)OC1=O | inactive |

tested on: Pseudomonas aeruginosa; experiment: Antibacterial activity against Pseudomonas aeruginosa KB367 expressing IMP-1 assessed as inhibition of bacterial growth at 30 ug in absence of meropenem incubated overnight by paper disk method; format: functional, organism-based; conditions: dose 30.0 µg

| Compound | inhibition zone (IZ) |
| --- | --- |
| CC/C=C/C1=C(c2ccc(OCOC)c(OCOC)c2)C(=O)OC1=O | inactive |

tested on: Pseudomonas aeruginosa; experiment: Antibacterial activity against Pseudomonas aeruginosa KB367 expressing IMP-1 assessed as inhibition of bacterial growth at 10 ug in absence of meropenem incubated overnight by paper disk method; format: functional, organism-based; conditions: dose 10.0 µg

| Compound | inhibition zone (IZ) |
| --- | --- |
| CC/C=C/C1=C(c2ccc(OCOC)c(OCOC)c2)C(=O)OC1=O | inactive |

tested on: Pseudomonas aeruginosa; experiment: Antibacterial activity against Pseudomonas aeruginosa KB367 expressing IMP-1 assessed as inhibition of bacterial growth at 3 ug in absence of meropenem incubated overnight by paper disk method; format: functional, organism-based; conditions: dose 3.0 µg

| Compound | inhibition zone (IZ) |
| --- | --- |
| CC/C=C/C1=C(c2ccc(OCOC)c(OCOC)c2)C(=O)OC1=O | inactive |

tested on: Pseudomonas aeruginosa; experiment: Antibacterial activity against Pseudomonas aeruginosa KB367 expressing IMP-1 assessed as inhibition of bacterial growth at 1 ug in absence of meropenem incubated overnight by paper disk method; format: functional, organism-based; conditions: dose 1.0 µg

| Compound | inhibition zone (IZ) |
| --- | --- |
| CC/C=C/C1=C(c2ccc(OCOC)c(OCOC)c2)C(=O)OC1=O | inactive |

tested on: Pseudomonas aeruginosa; experiment: Antibacterial activity against Pseudomonas aeruginosa KB367 expressing IMP-1 assessed as inhibition of bacterial growth at 0.3 ug in absence of meropenem incubated overnight by paper disk method; format: functional, organism-based; conditions: dose 0.3 µg

| Compound | inhibition zone (IZ) |
| --- | --- |
| CC/C=C/C1=C(c2ccc(OCOC)c(OCOC)c2)C(=O)OC1=O | inactive |

tested on: Pseudomonas aeruginosa; experiment: Antibacterial activity against Pseudomonas aeruginosa KB367 expressing IMP-1 assessed as inhibition of bacterial growth at 0.1 ug in absence of meropenem incubated overnight by paper disk method; format: functional, organism-based; conditions: dose 0.1 µg

| Compound | inhibition zone (IZ) |
| --- | --- |
| CC/C=C/C1=C(c2ccc(OCOC)c(OCOC)c2)C(=O)OC1=O | inactive |
